Measurements from ChEMBL document CHEMBL3259815, “Regioselective synthesis of polycyclic aza-oxa and aza-oxa-thia heteroarenes as Colo-205 and HepG2 carcinoma cells growth inhibitors” (Eur J Med Chem, 2014).
Converted amounts (≈) assume the structure as drawn. The source made the active and inactive calls. The calls are words filed in the database; no cut-off is given here.

Key:
COLO 205 [1] = experiment: Induction of apoptosis in human COLO205 cells assessed as increase of cytochrome-c relase at IC50 after 48 hrs by Western blotting; assay type: functional, cell-based
COLO 205 [2] = experiment: Induction of apoptosis in human COLO205 cells assessed as decrease of Bcl2 protein expression at IC50 after 48 hrs by Western blotting; assay type: functional, cell-based
COLO 205 [3] = experiment: Induction of apoptosis in human COLO205 cells assessed as late apoptotic cells at IC50 after 48 hrs using Annexin-V-FITC staining by flow cytometer analysis (reference value: 6.5%); assay type: functional
COLO 205 [4] = experiment: Induction of apoptosis in human COLO205 cells assessed as activation of caspase-9 at IC50 after 48 hrs by Western blotting; assay type: functional, cell-based
COLO 205 [5] = experiment: Induction of apoptosis in human COLO205 cells assessed as necrotic cells at IC50 after 24 hrs using Annexin-V-FITC staining by flow cytometer analysis relative to control; assay type: functional
COLO 205 [6] = experiment: Induction of apoptosis in human COLO205 cells assessed as activation of caspase-8 at IC50 after 48 hrs by Western blotting; assay type: functional, cell-based
COLO 205 [7] = experiment: Induction of apoptosis in human COLO205 cells assessed as cleaved PARP level at IC50 after 48 hrs by Western blotting; assay type: functional, cell-based
COLO 205 [8] = experiment: Induction of apoptosis in human COLO205 cells assessed as viable cells at IC50 after 48 hrs using Annexin-V-FITC staining by flow cytometer analysis (reference value: 65.8%); assay type: functional
COLO 205 [9] = experiment: Induction of apoptosis in human COLO205 cells assessed as cleaved procaspase-3 level at IC50 after 48 hrs by Western blotting; assay type: functional, cell-based
COLO 205 [10] = experiment: Induction of apoptosis in human COLO205 cells assessed as necrotic cells at IC50 after 48 hrs using Annexin-V-FITC staining by flow cytometer analysis (reference value: 0.5%); assay type: functional
COLO 205 [11] = experiment: Induction of apoptosis in human COLO205 cells assessed as early apoptotic cells at IC50 after 24 hrs using Annexin-V-FITC staining by flow cytometer analysis (reference value: 0.07%); assay type: functional
COLO 205 [12] = experiment: Induction of apoptosis in human COLO205 cells assessed as viable cells at IC50 after 24 hrs using Annexin-V-FITC staining by flow cytometer analysis (reference value: 75.5%); assay type: functional
COLO 205 [13] = experiment: Induction of apoptosis in human COLO205 cells assessed as increase of p53 protein expression at IC50 after 48 hrs by Western blotting; assay type: functional, cell-based
COLO 205 [14] = experiment: Induction of apoptosis in human COLO205 cells assessed as increase of Bax protein expression at IC50 after 48 hrs by Western blotting; assay type: functional, cell-based
COLO 205 [15] = experiment: Cytotoxicity against human COLO205 cells after 48 hrs by MTT assay; assay type: functional, cell-based; conditions: for IC50: COLO 205, 48 h
COLO 205 [16] = experiment: Induction of apoptosis in human COLO205 cells assessed as increase of p21 protein expression at IC50 after 48 hrs by Western blotting; assay type: functional, cell-based
HepG2 [17] = experiment: Cytotoxicity against human HepG2 cells up to 100 uM after 24 to 48 hrs by MTT assay; assay type: functional, cell-based
COLO 205 [18] = experiment: Induction of apoptosis in human COLO205 cells assessed as late apoptotic cells at IC50 after 24 hrs using Annexin-V-FITC staining by flow cytometer analysis (reference value: 0.07%); assay type: functional
[19] = Cytotoxicity against rat IEC-6 cells assessed as cell viability up to 100 uM after 24 to 48 hrs by MTT assay; assay type: cell-based
COLO 205 [20] = experiment: Induction of apoptosis in human COLO205 cells assessed as early apoptotic cells at IC50 after 48 hrs using Annexin-V-FITC staining by flow cytometer analysis (reference value: 0.3%); assay type: functional
COLO 205 [21] = experiment: Cytotoxicity against human COLO205 cells after 24 hrs by MTT assay; assay type: functional, cell-based
HepG2 [22] = experiment: Induction of apoptosis in human HepG2 cells assessed as necrotic cells at IC50 after 48 hrs using Annexin-V-FITC staining by flow cytometer analysis (reference value: 1.5%); assay type: functional
HepG2 [23] = experiment: Induction of apoptosis in human HepG2 cells assessed as increase of p53 and p21 protein expression at IC50 after 48 hrs by Western blotting; assay type: functional, cell-based
HepG2 [24] = experiment: Induction of apoptosis in human HepG2 cells assessed as increase of cleaved PARP level at IC50 after 48 hrs by Western blotting; assay type: functional, cell-based
HepG2 [25] = experiment: Induction of apoptosis in human HepG2 cells assessed as increase of Bax protein expression at IC50 after 48 hrs by Western blotting; assay type: functional, cell-based
HepG2 [26] = experiment: Induction of apoptosis in human HepG2 cells assessed as late apoptotic cells at IC50 after 48 hrs using Annexin-V-FITC staining by flow cytometer analysis (reference value: 0.5%); assay type: functional
HepG2 [27] = experiment: Induction of apoptosis in human HepG2 cells assessed as viable cells at IC50 after 48 hrs using Annexin-V-FITC staining by flow cytometer analysis (reference value: 97.3%); assay type: functional
HepG2 [28] = experiment: Cytotoxicity against human HepG2 cells after 48 hrs by MTT assay; assay type: functional, cell-based; conditions: HepG2, 48 h
HepG2 [29] = experiment: Induction of apoptosis in human HepG2 cells assessed as increase of cytochrome-c relase at IC50 after 48 hrs by Western blotting; assay type: functional, cell-based
HepG2 [30] = experiment: Cytotoxicity against human HepG2 cells after 24 to 48 hrs by MTT assay; assay type: functional, cell-based
HepG2 [31] = experiment: Induction of apoptosis in human HepG2 cells assessed as early apoptotic cells at IC50 after 48 hrs using Annexin-V-FITC staining by flow cytometer analysis (reference value: 0.6%); assay type: functional
HepG2 [32] = experiment: Induction of apoptosis in human HepG2 cells assessed as decrease of Bcl2 protein expression at IC50 after 48 hrs by Western blotting; assay type: functional, cell-based
HepG2 [33] = experiment: Induction of apoptosis in human HepG2 cells assessed as increase of cleaved caspase 3/9 level at IC50 after 48 hrs by Western blotting; assay type: functional, cell-based
HeLa = experiment: Cytotoxicity against human HeLa cells; assay type: functional
HepG2 [34] = experiment: Cytotoxicity against human HepG2 cells; assay type: functional

Compound	Activity (COLO 205 [1])	Activity (COLO 205 [2])	Activity (COLO 205 [3]) [%]	Activity (COLO 205 [4])	Activity (COLO 205 [5]) [%]	Activity (COLO 205 [6])	Activity (COLO 205 [7])	Activity (COLO 205 [8]) [%]	Activity (COLO 205 [9])	Activity (COLO 205 [10]) [%]	Activity (COLO 205 [11]) [%]	Activity (COLO 205 [12]) [%]	Activity (COLO 205 [13])	Activity (COLO 205 [14])	Activity (COLO 205 [15])	IC50 (COLO 205 [15]) [µM]	Activity (COLO 205 [16])	Activity (HepG2 [17])	Activity (COLO 205 [18]) [%]	Activity [19]	also measured
COc1ccc2c(c1)-c1oc(=O)c3c(N)n[nH]c3c1CCO2	Active	Active	7.7	Active	0.2	inactive	Active	49.3	Active	3	16.7	33.6	inactive	Active	Dose-dependent effect	40	Active	inactive	9	Non-toxic	Activity (COLO 205 [20]): 0.3%; Activity (COLO 205 [21]): inactive
Nc1n[nH]c2c3c(oc(=O)c12)-c1ccc2ccccc2c1OCC3	Active	Active	8.6	Active	1.7	inactive	Active	50.7	Active	7	5.5	54.7	inactive	Active	Dose-dependent effect	20	Active	–	7.5	Non-toxic	Activity (COLO 205 [20]): 0.2%; Activity (COLO 205 [21]): inactive
Nc1n[nH]c2c3c(oc(=O)c12)-c1ccccc1SC3	–	–	–	–	–	–	–	–	–	–	–	–	–	–	–	–	–	inactive	–	Non-toxic	–
Nc1n[nH]c2c3c(oc(=O)c12)-c1cc(Cl)ccc1SC3	–	–	–	–	–	–	–	–	–	–	–	–	–	–	–	–	–	inactive	–	Non-toxic	–
Nc1n[nH]c2c3c(oc(=O)c12)-c1ccccc1OCC3	–	–	–	–	–	–	–	–	–	–	–	–	–	–	–	–	–	–	–	Non-toxic	Activity (HepG2 [22]): 4.6%; Activity (HepG2 [23]): Active; Activity (HepG2 [24]): Active; Activity (HepG2 [25]): Active; Activity (HepG2 [26]): 9.2%; Activity (HepG2 [27]): 70.4%; IC50 (HepG2 [28]): 80 µM; Activity (HepG2 [29]): Active; Activity (HepG2 [30]): Dose-dependent effect; Activity (HepG2 [31]): 15.8%; Activity (HepG2 [32]): Active; Activity (HepG2 [33]): Active
CC(=O)c1c(O)c2ccc3ccccc3c2oc1=O	–	–	–	–	–	–	–	–	–	–	–	–	–	–	–	–	–	–	–	–	CC50 (HeLa): 6.87 µg/mL (≈ 27 µM); CC50 (HepG2 [34]): 6.87 µg/mL (≈ 27 µM)
Nc1n[nH]c2c1C(=O)NN=C1c3ccccc3OCCC12 (centres undefined)	–	–	–	–	–	–	–	–	–	–	–	–	–	–	–	–	–	–	–	Non-toxic	Activity (HepG2 [22]): 6.7%; Activity (HepG2 [23]): Active; Activity (HepG2 [24]): Active; Activity (HepG2 [25]): Active; Activity (HepG2 [26]): 7.6%; Activity (HepG2 [27]): 74.5%; IC50 (HepG2 [28]): 60 µM; Activity (HepG2 [29]): Active; Activity (HepG2 [30]): Dose-dependent effect; Activity (HepG2 [31]): 11.2%; Activity (HepG2 [32]): Active; Activity (HepG2 [33]): Active
Cc1cc2c(cc1C)-c1oc(=O)c3c(N)n[nH]c3c1CCO2	Active	Active	4	Active	0.7	inactive	Active	63.5	Active	7.5	9.4	50.6	inactive	Active	Dose-dependent effect	60	Active	inactive	4.3	Non-toxic	Activity (COLO 205 [20]): 0.1%; Activity (COLO 205 [21]): inactive
Nc1n[nH]c2c1C(=O)NN=C1c3cc(Cl)ccc3SCC12 (centres undefined)	–	–	–	–	–	–	–	–	–	–	–	–	–	–	–	–	–	inactive	–	Non-toxic	–
